From patent US12435068B2, “Anthelmintic compounds” (Elanco Animal Health GmBh, priority 2018, dated 2025)
Values after ≈ are worked out from the molar mass of the structure shown.

Legend:
[1] = tested on: Dirofilaria immitis microfilariae; test: In Vitro Assay 2: Dirofilaria immitis microfilariae (DIROIM L1) motility; assay type: cell-based; details: 72 h, read-out: EC50 ppm
[2] = tested on: Dirofilaria immitis larvae; test: In Vitro Assay 3: Dirofilaria immitis (DIROIM L4) larval motility; assay type: cell-based; details: 72 h, read-out: EC50 ppm
C. elegans Slo-1a = C. elegans Slo-1a (Caenorhabditis elegans, UniProt Q95V25)
Chain of C. elegans Slo-1a (Q95V25 whole entry): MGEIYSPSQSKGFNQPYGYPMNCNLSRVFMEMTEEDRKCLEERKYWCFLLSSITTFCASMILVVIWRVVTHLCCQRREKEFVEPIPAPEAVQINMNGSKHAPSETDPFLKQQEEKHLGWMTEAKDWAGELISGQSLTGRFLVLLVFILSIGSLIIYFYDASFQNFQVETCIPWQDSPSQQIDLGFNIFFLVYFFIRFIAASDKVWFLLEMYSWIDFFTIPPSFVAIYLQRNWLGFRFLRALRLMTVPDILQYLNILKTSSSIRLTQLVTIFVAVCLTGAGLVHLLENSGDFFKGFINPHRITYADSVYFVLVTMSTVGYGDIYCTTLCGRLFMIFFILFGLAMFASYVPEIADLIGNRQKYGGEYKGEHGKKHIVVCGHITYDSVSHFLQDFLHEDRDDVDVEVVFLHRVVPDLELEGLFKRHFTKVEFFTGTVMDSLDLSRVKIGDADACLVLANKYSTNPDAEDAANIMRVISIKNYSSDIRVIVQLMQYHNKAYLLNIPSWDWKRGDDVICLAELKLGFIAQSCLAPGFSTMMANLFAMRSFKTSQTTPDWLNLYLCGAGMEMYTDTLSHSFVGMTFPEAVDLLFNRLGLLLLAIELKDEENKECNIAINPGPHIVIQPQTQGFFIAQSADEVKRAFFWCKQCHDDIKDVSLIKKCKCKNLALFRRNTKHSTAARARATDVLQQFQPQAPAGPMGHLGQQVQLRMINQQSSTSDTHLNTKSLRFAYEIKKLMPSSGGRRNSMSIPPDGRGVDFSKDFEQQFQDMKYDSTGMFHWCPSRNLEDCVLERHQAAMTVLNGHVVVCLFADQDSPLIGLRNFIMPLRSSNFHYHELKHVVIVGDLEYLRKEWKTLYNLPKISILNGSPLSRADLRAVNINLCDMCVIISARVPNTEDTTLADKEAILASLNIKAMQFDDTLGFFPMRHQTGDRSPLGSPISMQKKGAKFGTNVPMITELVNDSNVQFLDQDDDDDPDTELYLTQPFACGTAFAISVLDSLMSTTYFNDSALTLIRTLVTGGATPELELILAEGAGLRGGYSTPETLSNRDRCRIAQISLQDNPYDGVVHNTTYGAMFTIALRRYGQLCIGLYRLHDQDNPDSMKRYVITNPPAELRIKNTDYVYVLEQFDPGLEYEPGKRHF
Protocol: Cells were cultured at 37° C. and 5% CO2 in MEMalpha with Gutamax I (Invitrogen, Nr.: 32571), supplemented with 10% (v/v) heat inactivated fetal bovine serum (Invitrogen, Nr.: 10500), G418 (1 mg/ml, Invitrogen, Nr.: 10131). Cells were detached using Accutase (Sigma, Nr.: A6964).
Membrane Potential Measurements
Laboratory compound testing was performed on 384-well microtiter plates (MTPs, Greiner, Nr.: 781092). 8000 cells/well were plated onto 384-well MTPs and cultured for 20 to 24 hours at 37° C. and 5% CO2. After removal of the cell culture medium, the cells were washed once with tyrode (150 mM NaCl, 0.3 mM KCl, 2 mM CaCl2, 1 mM MgCl2, 0.8 mM NaH2PO4, 5 mM Glucose, 28 mM Hepes, pH 7.4) and then loaded with the voltage sensitive dye of the Membrane Potential Assay Kit diluted in tyrode for 1 h at room temperature.
After starting the measurement of fluorescence using a FLIPR Tetra (Molecular Devices, Exc. 510-545 nm, Emm. 565-625 nm), test compounds were added followed by the addition of KCl tyrode (final assay concentration: 70 mM KCl, 2 mM CaCl2, 1 mM MgCl2, 0.8 mM NaH2PO4, 5 mM Glucose, 28 mM Hepes, pH 7.4, including the voltage sensitive dye). The measurement was completed after 7 minutes.

SMILES	EC50 [1] [µg/mL]	EC50 [2] [µg/mL]	EC50 (C. elegans Slo-1a) [nM]
CC(C)C1=C(C(=O)N[C@H]2CCOc3ccccc32)COc2c1cccc2-c1cc(Cl)cc(Cl)c1 [Example Compound S8a-1, 8-(3,5-Dichlorophenyl)-N-[(4S)-3,4-dihydro-2H-chromen-4-yl]-4-(propan-2-yl)-2H-chromene-3-carboxamide]	< 0.0032	0.04 (≈ 0.0809 µM)	3.16
CC1=C(C(=O)N[C@H]2CCCc3ccccc32)C(C)c2cccc(-c3cc(F)cc(F)c3F)c2O1 (stereo partly drawn) [Example Compound S8b-2, 2,4-Dimethyl-N-[(1S)-1,2,3,4-tetrahydronaphthalen-1-yl]-8-(2,3,5-trifluorophenyl)-4H-chromene-3-carboxamide]	0.08 (≈ 0.173 µM)	1.26 (≈ 2.72 µM)	> 50100
CC(C)c1c(C(=O)N[C@H]2CCOc3ccccc32)sc2c(-c3cccc(Cl)c3)cccc12 [Example Compound S1-2, 7-(3-Chlorophenyl)-N-[(4S)-3,4-dihydro-2H-chromen-4-yl]-3-isopropyl-1-benzothiophene-2-carboxamide]	0.03 (≈ 0.0649 µM)	> 0.08	3.98
COc1c(C(=O)N[C@H]2CCOc3ccccc32)sc2c(-c3cccc(Cl)c3Cl)cccc12 [Example Compound S1-11, 7-(2,3-Dichlorophenyl)-N-[(4S)-3,4-dihydro-2H-chromen-4-yl]-3-methoxy-1-benzothiophene-2-carboxamide]	0.04 (≈ 0.0826 µM)	> 0.08	31.6
CC1=C(C(=O)N[C@H]2CCc3ccccc32)C(C)c2cccc(-c3cc(Cl)cc(Cl)c3)c2O1 (stereo partly drawn) [Example Compound S8b-1, 8-(3,5-Dichlorophenyl)-N-[(1S)-2,3-dihydro-1H-inden-1-yl]-2,4-dimethyl-4H-chromene-3-carboxamide]	1.47 (≈ 3.17 µM)	> 0.4	
CC(C)c1c(C(=O)N[C@H]2CCOc3ccccc32)sc2c(-c3cccc(Cl)c3Cl)cccc12 [Example Compound S1-3, 7-(2,3-Dichlorophenyl)-N-[(4S)-3,4-dihydro-2H-chromen-4-yl]-3-isopropyl-1-benzothiophene-2-carboxamide]	0.01 (≈ 0.0201 µM)	0.03 (≈ 0.0604 µM)	0.631
CC(C)c1c(C(=O)N[C@H]2CCOc3ccccc32)c(=O)oc2c(-c3cc(Cl)cc(Cl)c3)cccc12 [Example Compound S8a-2, 8-(3,5-Dichlorophenyl)-N-[(4S)-3,4-dihydro-2H-chromen-4-yl]-2-oxo-4-(propan-2-yl)-2H-chromene-3-carboxamide]	< 0.0032	0.18 (≈ 0.354 µM)	1.26
CC(C)n1c(C(=O)N[C@H]2CCOc3ccccc32)cc2c(-c3cc(F)cc(F)c3F)cccc21 [Example Compound S2-6, N-[(4S)-3,4-Dihydro-2H-chromen-4-yl]-1-(propan-2-yl)-4-(2,3,5-trifluorophenyl)-1H-indole-2-carboxamide]	0.0086 (≈ 0.0185 µM)	0.08 (≈ 0.172 µM)	15.8
O=C(N[C@H]1CCOc2ccccc21)c1cnc2c(cnn2-c2c(F)cccc2F)c1Cl [Example Compound S4-1, 4-Chloro-1-(2,6-difluorophenyl)-N-[(4S)-3,4-dihydro-2H-chromen-4-yl]-1H-pyrazolo[3,4-b]pyridine-5-carboxamide]	0.41 (≈ 0.93 µM)		1120
COc1c(C(=O)N[C@H]2CCOc3ccccc32)sc2c(-c3cccc(Cl)c3)cccc12 [Example Compound S1-10, 7-(3-Chlorophenyl)-N-[(4S)-3,4-dihydro-2H-chromen-4-yl]-3-methoxy-1-benzothiophene-2-carboxamide]	0.37 (≈ 0.822 µM)		398
CN(C)c1c(C(=O)N[C@H]2CCOc3ccccc32)sc2c(-c3cccc(Cl)c3Cl)nccc12 [Example Compound S1-13, 7-(2,3-Dichlorophenyl)-N-[(4S)-3,4-dihydro-2H-chromen-4-yl]-3-(dimethylamino)thieno[2,3-c]pyridine-2-carboxamide]	0.08 (≈ 0.161 µM)		15.8
CN(C)c1c(C(=O)N[C@H]2CCOc3ccccc32)ncc2c1ccc(=O)n2Cc1ccc(Cl)cc1 [Example Compound S7-2, 1-(4-Chlorobenzyl)-N-[(4S)-3,4-dihydro-2H-chromen-4-yl]-5-(dimethylamino)-2-oxo-1,2-dihydro 1,7-naphthyridine-6-carboxamide]	> 2		1000
CC(C)n1c(C(=O)N[C@H]2CCOc3ccccc32)cc2c(-c3cc(Cl)cc(Cl)c3Cl)cccc21 [Example Compound S2-4, N-[(4S)-3,4-Dihydro-2H-chromen-4-yl]-1-(propan-2-yl)-4-(2,3,5-trichlorophenyl)-1H-indole-2-carboxamide]	0.02 (≈ 0.0389 µM)		15.8
CN(C)c1c(C(=O)N[C@H]2CCOc3ccccc32)cnc2c1n(C)c(=O)n2-c1cc(Cl)cc(Cl)c1 [Example Compound S5-1, 3-(3,5-Dichlorophenyl)-N-[(4S)-3,4-dihydro-2H-chromen-4-yl]-7-(dimethylamino)-1-methyl-2-oxo-2,3-dihydro-1H-imidazo[4,5-b]pyridine-6-carboxamide]	0.38 (≈ 0.742 µM)		100
O=C(N[C@H]1CCOc2ccccc21)c1cnc2c(ccc(=O)n2-c2cc(Cl)cc(Cl)c2)c1 [Example Compound S7-1, 8-(3,5-Dichlorophenyl)-N-[(4S)-3,4-dihydro-2H-chromen-4-yl]-7-oxo-7,8-dihydro-1,8-naphthyridine-3-carboxamide]	1.95 (≈ 4.18 µM)		200
O=C(N[C@H]1CCOc2ccccc21)C1=Cc2cccc(-c3cc(Cl)cc(Cl)c3)c2OC1 [Example Compound S8a-4, 8-(3,5-Dichlorophenyl)-N-[(4S)-3,4-dihydro-2H-chromen-4-yl]-2H-chromene-3-carboxamide]	> 2		20
CN(C)c1c(C(=O)N[C@H]2CCOc3ccccc32)cnc2c1cnn2-c1c(F)cccc1F [Example Compound S4-5, 1-(2,6-Difluorophenyl)-N-[(4S)-3,4-dihydro-2H-chromen-4-yl]-4-(dimethylamino)-1H-pyrazolo [3,4-b]pyridine-5-carboxamide]	> 2		398
O=C(N[C@H]1CCOc2ccccc21)c1c(N2CCOCC2)c2cccc(-c3cc(Cl)cc(Cl)c3)c2[nH]c1=O [Example Compound S8a-6, 8-(3,5-Dichlorophenyl)-N-[(4S)-3,4-dihydro-2H-chromen-4-yl]-4-(morpholin-4-yl)-2-oxo-1,2-dihydroquinoline-3-carboxamide]	0.64 (≈ 1.16 µM)		39.8
O=C(N[C@H]1CCOc2ccccc21)C1=Cc2cccc(-c3cccc(Cl)c3Cl)c2OC1 [Example Compound S8a-5, 8-(2,3-Dichlorophenyl)-N-[(4S)-3,4-dihydro-2H-chromen-4-yl]-2H-chromene-3-carboxamide]	0.09 (≈ 0.199 µM)	0.04 (≈ 0.0884 µM)	5.01
O=C(N[C@H]1CCOc2ccccc21)c1ccc2c(-c3cccc(Cl)c3Cl)nccc2c1 [Example Compound S6-2, 1-(2,3-Dichlorophenyl)-N-[(4S)-3,4-dihydro-2H-chromen-4-yl]isoquinoline-6-carboxamide]	> 2		794
O=C(N[C@H]1CCOc2ccccc21)c1cc2cccc(-c3cccc(Cl)c3Cl)c2oc1=O [Example Compound S8a-3, 8-(2,3-Dichlorophenyl)-N-[(4S)-3,4-dihydro-2H-chromen-4-yl]-2-oxo-2H-chromene-3-carboxamide]	0.25 (≈ 0.536 µM)		50.1
CC(C)n1c(C(=O)N[C@H]2CCOc3ccccc32)cc2c(-c3cccc(Cl)c3Cl)cccc21 [Example Compound S2-7, 4-(2,3-Dichlorophenyl)-N-[(4S)-3,4-dihydro-2H-chromen-4-yl]-1-(propan-2-yl)-1H-indole-2-carboxamide]	0.01 (≈ 0.0209 µM)		20
COc1c(C(=O)N[C@H]2CCOc3ccccc32)sc2c(-c3cccc(Cl)c3)nccc12 [Example Compound S1-15, 7-(3-Chlorophenyl)-N-[(4S)-3,4-dihydro-2H-chromen-4-yl]-3-methoxythieno[2,3-c]pyridine-2-carboxamide]	> 2		794
COc1c(C(=O)N[C@H]2CCOc3ccccc32)sc2c(-c3cc(Cl)cc(Cl)c3)nccc12 [Example Compound S1-14, 7-(3,5-Dichlorophenyl)-N-[(4S)-3,4-dihydro-2H-chromen-4-yl]-3-methoxythieno[2,3-c]pyridine-2-carboxamide]	2 (≈ 4.12 µM)		794
O=C(N[C@H]1CCOc2ccccc21)c1ccc2nc(-c3cccc(Cl)c3Cl)cnc2c1 [Example Compound S9-4, 2-(2,3-Dichlorophenyl)-N-[(4S)-3,4-dihydro-2H-chromen-4-yl]quinoxaline-6-carboxamide]	0.32 (≈ 0.711 µM)		20
